According to the supplement of paper PMC10307832:

Key:
Assay in all cases: relative viability (nuclei count vs DMSO), 5 days (fraction); higher = more cells survive
[1] = compound: CC(C)N(CCCNC(=O)Nc1ccc(C(C)(C)C)cc1)C[C@H]1O[C@@H](n2ccc3c(N)ncnc32)[C@H](O)[C@@H]1O + O=C(c1cc(Cc2n[nH]c(=O)c3ccccc23)ccc1F)N1CCN(C(=O)C2CC2)CC1 [Olaparib] (partner 8 µM)
Procedure, shortened: (§1)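 Lung cancer cell lines in 1536-well plates were dosed by pin tool the day after seeding, either with one drug alone or with a fixed anchor-drug dose plus five library-drug doses (not always all listed) in √10 steps. After 5 days, cells were fixed and their nuclei stained in one step (final 0.05% Triton X-100, 1% formaldehyde, 1 ug/ml Hoechst), then counted on 4× images. Relative viability is the nuclei count in treated wells divided by that in vehicle wells. Values are medians of duplicate plates.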

Shikonin + Luminespib = compound: CC(C)=CC[C@@H](O)C1=CC(=O)c2c(O)ccc(O)c2C1=O [Shikonin] + CCNC(=O)c1noc(-c2cc(C(C)C)c(O)cc2O)c1-c1ccc(CN2CCOCC2)cc1 [Luminespib] (partner 0.01 µM)
Procedure, shortened: as §1

Shikonin + Trametinib = compound: CC(C)=CC[C@@H](O)C1=CC(=O)c2c(O)ccc(O)c2C1=O [Shikonin] + CC(=O)Nc1cccc(-n2c(=O)n(C3CC3)c(=O)c3c(Nc4ccc(I)cc4F)n(C)c(=O)c(C)c32)c1 [Trametinib] (partner 0.02 µM)
Procedure, shortened: as §1

[2] = compound: CC(C)N(CCCNC(=O)Nc1ccc(C(C)(C)C)cc1)C[C@H]1O[C@@H](n2ccc3c(N)ncnc32)[C@H](O)[C@@H]1O + CS(=O)(=O)N1CCN(Cc2cc3nc(-c4cccc5[nH]ncc45)nc(N4CCOCC4)c3s2)CC1 [Pictilisib] (partner 1 µM)
Procedure, shortened: as §1

Row | Cell Line | relative viability ([1]; first compound 0.08 µM) | relative viability ([1]; first compound 0.253 µM) | relative viability ([1]; first compound 2.53 µM) | relative viability ([1]; first compound 8 µM) | relative viability (Shikonin + Luminespib; first compound 0.01 µM) | relative viability (Shikonin + Luminespib; first compound 0.1 µM) | relative viability (Shikonin + Luminespib; first compound 0.3162 µM) | relative viability (Shikonin + Luminespib; first compound 1 µM) | relative viability (Shikonin + Trametinib; first compound 0.01 µM) | relative viability (Shikonin + Trametinib; first compound 0.1 µM) | relative viability (Shikonin + Trametinib; first compound 0.3162 µM) | relative viability (Shikonin + Trametinib; first compound 1 µM) | relative viability ([2]; first compound 0.08 µM) | relative viability ([2]; first compound 0.253 µM) | relative viability ([2]; first compound 0.8 µM) | relative viability ([2]; first compound 2.53 µM) | relative viability ([2]; first compound 8 µM) | relative viability ([1]; first compound 0.8 µM)
1 | 201T | 0.83 | 0.891 | 0.809 | 0.797 | 0.971 | 1.13 | 1.03 | 1.07 | 0.724 | 0.777 | 0.75 | 0.707 | 0.652 | 0.624 | 0.571 | 0.722 | 0.733 | 
2 | A549 | 0.409 | 0.32 | 0.535 | 0.317 |  |  |  |  |  |  |  |  | 0.513 | 0.501 | 0.53 | 0.52 | 0.469 | 0.251
3 | A-427 | 0.71 | 0.779 | 0.771 | 0.702 | 0.743 | 1.21 | 0.814 | 0.88 | 0.776 | 0.816 | 0.821 | 0.779 | 0.775 | 0.644 | 0.812 | 0.597 | 0.77 | 0.613
4 | ABC-1 | 0.69 | 0.745 | 1.47 | 0.8 | 0.713 | 0.753 | 0.4 | 0.17 |  |  |  |  | 0.623 | 0.71 |  | 0.828 | 0.701 | 
5 | BEN | 0.974 | 1.25 | 1.03 | 1.02 | 0.505 | 0.469 | 0.474 | 0.849 | 1.13 | 1.06 | 1.03 | 1.19 | 0.606 | 0.497 | 0.586 | 0.588 | 0.586 | 1.24
6 | CAL-12T | 0.735 | 0.775 | 0.698 | 0.723 | 0.473 | 0.415 | 0.257 | 0.42 | 0.346 | 0.376 | 0.243 | 0.28 | 0.316 | 0.388 | 0.398 | 0.459 | 0.47 | 0.702
7 | COR-L23 | 0.297 | 0.376 | 0.347 | 0.29 | 0.848 | 0.675 | 0.767 | 0.357 | 0.769 | 0.685 | 0.622 | 0.508 | 0.678 | 0.606 | 0.662 | 0.778 | 0.735 | 0.365
8 | COR-L 105 | 0.678 | 0.724 | 0.652 | 0.649 | 0.787 | 0.758 | 0.83 | 0.74 | 0.387 | 0.445 | 0.442 | 0.387 | 0.413 | 0.301 | 0.408 | 0.369 | 0.404 | 0.702
9 | Calu-6 | 0.521 | 0.53 | 0.552 | 0.57 |  |  |  |  |  |  |  |  | 0.929 | 0.91 | 0.971 | 0.922 | 0.882 | 0.547
10 | ChaGo-K-1 | 0.423 | 0.413 | 0.392 | 0.389 | 0.635 | 0.82 | 0.55 | 0.415 | 0.883 | 0.98 | 0.903 | 0.972 | 0.771 | 0.726 | 0.658 | 0.632 | 0.912 | 0.431
11 | EBC-1 | 0.766 | 0.746 | 0.85 | 0.657 |  |  |  |  |  |  |  |  | 0.334 | 0.386 | 0.338 | 0.399 | 0.347 | 0.76
12 | EKVX | 0.818 | 0.83 | 0.803 | 0.752 | 0.907 | 0.892 | 0.915 | 0.922 | 0.326 | 0.336 | 0.389 | 0.398 | 0.454 | 0.407 | 0.446 | 0.468 | 0.423 | 0.67
13 | EMC-BAC-2 | 0.486 | 0.513 | 0.389 | 0.435 | 1.25 | 1.44 | 1.3 | 1.24 | 0.863 | 0.947 | 1 | 0.851 | 0.601 | 0.49 | 0.581 | 0.522 | 0.502 | 0.472
14 | EPLC-272H | 0.669 | 0.85 | 0.734 | 0.859 | 0.167 | 0.303 | 0.209 | 0.261 | 0.286 | 0.335 | 0.265 | 0.244 | 0.286 | 0.253 | 0.314 | 0.284 | 0.322 | 0.764
15 | H3255 | 0.552 | 0.562 | 0.598 | 0.517 | 0.869 | 0.973 | 1.05 | 0.865 | 0.658 | 0.544 | 0.613 | 0.548 | 0.463 | 0.414 | 0.442 | 0.557 | 0.461 | 0.555
16 | HARA | 0.844 | 0.737 | 0.538 | 0.494 | 0.864 | 0.841 | 0.775 | 0.936 | 0.68 | 0.54 | 0.893 | 0.627 | 0.506 | 0.479 | 0.344 | 0.311 | 0.31 | 0.764
17 | HCC-15 | 0.669 | 0.754 | 0.758 | 0.709 | 0.358 | 0.888 | 0.242 | 0.402 | 0.389 | 0.35 | 0.414 | 0.418 | 0.697 | 0.695 | 0.643 | 0.732 | 0.701 | 0.702
18 | HCC-44 | 1 | 1.03 | 1 | 0.972 | 0.814 | 1.14 | 1.28 | 1.23 | 1.08 | 1.01 | 0.996 | 1.08 | 0.542 | 0.644 | 0.488 | 0.734 | 0.578 | 0.981
19 | HCC-78 | 0.885 | 0.734 | 0.792 | 0.804 |  |  |  |  | 0.773 | 0.906 | 0.828 | 0.734 | 0.156 | 0.196 | 0.263 | 0.192 | 0.212 | 0.691
20 | HCC-366 | 0.336 | 0.428 | 0.292 | 0.281 |  |  |  |  | 0.359 | 0.363 | 0.336 | 0.451 | 0.128 | 0.157 | 0.117 | 0.181 | 0.194 | 0.328
